Reference: ChEMBL document CHEMBL1201862, “PubChem BioAssay data set” (2004)
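1) Cells in 96-well plates. 2) Compound, 48 h, 5 concentrations. 3) Linear interpolation between surrounding doses. 4) Unreached endpoint = highest concentration. GI50 marks 50% less growth.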 Active and inactive are the calls of the source. No stated cut-off is given here; in the data, active = GI50 up to about 1.1 µM and inactive = higher.

Assays:
Assay in all cases: NCI tumour cell line growth inhibition, 48 h
[1] = system: SR
[2] = system: A549
[3] = system: BT-549
[4] = system: A498
[5] = system: SK-MEL-5
[6] = system: NCI-H226
[7] = system: SF-268
[8] = system: LOX IMVI
[9] = system: NCI-H522
[10] = system: HCT-15
[11] = system: K562
[12] = system: Malme-3M
[13] = system: OVCAR-5
[14] = system: RPMI-8226
[15] = system: SF-539
[16] = system: HL-60
[17] = system: UACC-257
[18] = system: NCI/ADR-RES
[19] = system: HOP-62
[20] = system: CAKI-1
[21] = system: SK-MEL-28
[22] = system: MDA-MB-435
[23] = system: SN12C
[24] = system: MDA-N
[25] = system: NCI-H23
[26] = system: HT-29
[27] = system: TK-10
[28] = system: OVCAR-4
[29] = system: SNB-75
[30] = system: HCC 2998
[31] = system: Hs-578T
[32] = system: SW-620
[33] = system: SF-295
[34] = system: ACHN
[35] = system: OVCAR-3
[36] = system: HOP-92
[37] = system: SNB-19
[38] = system: UACC-62
[39] = system: KM12
[40] = system: IGROV-1
[41] = system: SK-OV-3
[42] = system: RXF 393
[43] = system: HCT-116
[44] = system: MDA-MB-231
[45] = system: NCI-H460
[46] = system: 786-0
[47] = system: CCRF-CEM
[48] = system: M14
[49] = system: SK-MEL-2
[50] = system: T47D
[51] = system: COLO 205
[52] = system: UO-31
[53] = system: OVCAR-8
[54] = system: PC-3
[55] = system: EKVX
[56] = system: DU-145
[57] = system: MOLT-4
[58] = system: U-251
[59] = system: MCF7

CC[C@@H](CCCC[C@@H]1CC[C@H]2CC(=O)C[C@@H]12)OC
GI50 [1]: > 100 µM (inactive) | GI50 [2]: > 100 µM (inactive) | GI50 [3]: 66.7 µM (inactive) | GI50 [4]: > 100 µM (inactive) | GI50 [5]: 85.1 µM (inactive) | GI50 [6]: > 100 µM (inactive) | GI50 [7]: > 100 µM (inactive) | GI50 [8]: > 100 µM (inactive) | GI50 [9]: > 100 µM (inactive) | GI50 [10]: > 100 µM | GI50 [11]: 30.8 µM (inactive) | GI50 [12]: > 100 µM (inactive) | GI50 [13]: > 100 µM (inactive) | GI50 [14]: > 100 µM (inactive) | GI50 [15]: > 100 µM (inactive) | GI50 [16]: 43.2 µM (inactive) | GI50 [17]: 69.5 µM (inactive) | GI50 [18]: 99.5 µM (inactive) | GI50 [19]: > 100 µM (inactive) | GI50 [20]: > 100 µM (inactive) | GI50 [21]: > 100 µM (inactive) | GI50 [22]: > 100 µM (inactive) | GI50 [23]: > 100 µM (inactive) | GI50 [24]: > 100 µM (inactive) | GI50 [25]: > 100 µM (inactive) | GI50 [26]: > 100 µM (inactive) | GI50 [27]: > 100 µM (inactive) | GI50 [28]: > 100 µM (inactive) | GI50 [29]: > 100 µM (inactive) | GI50 [30]: > 100 µM (inactive) | GI50 [31]: > 100 µM (inactive) | GI50 [32]: > 100 µM (inactive) | GI50 [33]: > 100 µM (inactive) | GI50 [34]: > 100 µM (inactive)

NS(=O)(=O)c1nn2c(Br)c(-c3ccccc3)nc2s1
GI50 [35]: 4.49 µM (inactive) | GI50 [1]: 1.88 µM (inactive) | GI50 [36]: 8.77 µM (inactive) | GI50 [2]: 6.44 µM (inactive) | GI50 [3]: 2.97 µM (inactive) | GI50 [37]: 9.46 µM (inactive) | GI50 [4]: 17 µM (inactive) | GI50 [38]: 4.23 µM (inactive) | GI50 [39]: 4.85 µM (inactive) | GI50 [40]: 10.4 µM (inactive) | GI50 [5]: 2.42 µM (inactive) | GI50 [41]: 14.7 µM (inactive) | GI50 [6]: 1.91 µM (inactive) | GI50 [7]: 8.38 µM (inactive) | GI50 [8]: 1.95 µM (inactive) | GI50 [42]: 0.847 µM (active) | GI50 [43]: 2.04 µM (inactive) | GI50 [9]: 1.61 µM (inactive) | GI50 [44]: 4.47 µM (inactive) | GI50 [10]: 2.86 µM | GI50 [11]: 2.2 µM (inactive) | GI50 [12]: 3.96 µM (inactive) | GI50 [13]: 11.1 µM (inactive) | GI50 [14]: 2.39 µM (inactive) | GI50 [45]: 5.98 µM (inactive) | GI50 [15]: 1.96 µM (inactive) | GI50 [46]: 2.45 µM (inactive) | GI50 [47]: 2.65 µM (inactive) | GI50 [16]: 3.66 µM (inactive) | GI50 [48]: 3.31 µM (inactive) | GI50 [17]: 5.16 µM (inactive) | GI50 [18]: 3.84 µM (inactive) | GI50 [19]: 14.9 µM (inactive) | GI50 [49]: 4.52 µM (inactive) | GI50 [50]: 3.66 µM (inactive) | GI50 [20]: 3.03 µM (inactive) | GI50 [21]: 9.06 µM (inactive) | GI50 [22]: 4.45 µM (inactive) | GI50 [23]: 2.92 µM (inactive) | GI50 [51]: 5.24 µM (inactive) | GI50 [52]: 4.02 µM (inactive) | GI50 [25]: 3.48 µM (inactive) | GI50 [26]: 2.49 µM (inactive) | GI50 [53]: 2.38 µM (inactive) | GI50 [54]: 6.03 µM (inactive) | GI50 [27]: 6.37 µM (inactive) | GI50 [28]: 10.6 µM (inactive) | GI50 [55]: 15.8 µM (inactive) | GI50 [56]: 3.08 µM (inactive) | GI50 [29]: 5.18 µM (inactive) | GI50 [30]: 4.92 µM (inactive) | GI50 [31]: 9.48 µM (inactive) | GI50 [57]: 1.61 µM (inactive) | GI50 [32]: 3.62 µM (inactive) | GI50 [58]: 4.59 µM (inactive) | GI50 [33]: 8.97 µM (inactive) | GI50 [34]: 4.45 µM (inactive) | GI50 [59]: 3.95 µM (inactive)

c1ccc2sc(C3(N4CCC5(CC4)OCCO5)CCCCC3)cc2c1
GI50 [35]: > 100 µM (inactive) | GI50 [1]: 7.89 µM (inactive) | GI50 [36]: 25.8 µM (inactive) | GI50 [2]: > 100 µM (inactive) | GI50 [3]: > 100 µM (inactive) | GI50 [37]: > 100 µM (inactive) | GI50 [4]: > 100 µM (inactive) | GI50 [38]: > 100 µM (inactive) | GI50 [39]: 56.4 µM (inactive) | GI50 [40]: > 100 µM (inactive) | GI50 [5]: 50.5 µM (inactive) | GI50 [41]: > 100 µM (inactive) | GI50 [6]: 18.6 µM (inactive) | GI50 [7]: > 100 µM (inactive) | GI50 [8]: > 100 µM (inactive) | GI50 [42]: > 100 µM (inactive) | GI50 [43]: 58.1 µM (inactive) | GI50 [9]: 78 µM (inactive) | GI50 [10]: > 100 µM | GI50 [11]: > 100 µM (inactive) | GI50 [12]: > 100 µM (inactive) | GI50 [13]: 55.5 µM (inactive) | GI50 [14]: 29.4 µM (inactive) | GI50 [45]: 48.5 µM (inactive) | GI50 [15]: > 100 µM (inactive) | GI50 [46]: 99.1 µM (inactive) | GI50 [47]: 29 µM (inactive) | GI50 [16]: 12.2 µM (inactive) | GI50 [48]: 61.1 µM (inactive) | GI50 [17]: 60.1 µM (inactive) | GI50 [18]: > 100 µM (inactive) | GI50 [19]: > 100 µM (inactive) | GI50 [50]: > 100 µM (inactive) | GI50 [20]: > 100 µM (inactive) | GI50 [21]: > 100 µM (inactive) | GI50 [22]: 58.6 µM (inactive) | GI50 [23]: 88.3 µM (inactive) | GI50 [24]: 80.4 µM (inactive) | GI50 [51]: 48 µM (inactive) | GI50 [52]: > 100 µM (inactive) | GI50 [25]: > 100 µM (inactive) | GI50 [26]: 21.1 µM (inactive) | GI50 [53]: > 100 µM (inactive) | GI50 [27]: 90.6 µM (inactive) | GI50 [28]: > 100 µM (inactive) | GI50 [55]: > 100 µM (inactive) | GI50 [56]: > 100 µM (inactive) | GI50 [29]: 56.4 µM (inactive) | GI50 [30]: 27.7 µM (inactive) | GI50 [31]: > 100 µM (inactive) | GI50 [57]: 29.2 µM (inactive) | GI50 [32]: > 100 µM (inactive) | GI50 [33]: > 100 µM (inactive) | GI50 [34]: > 100 µM (inactive) | GI50 [59]: 29.4 µM (inactive)

N#CC1(C#N)C(c2ccccc2)NC23CCCCC2C1(C#N)C(=O)N3 (stereo unspecified)
GI50 [35]: > 100 µM (inactive) | GI50 [1]: 57.8 µM (inactive) | GI50 [36]: > 100 µM (inactive) | GI50 [2]: > 100 µM (inactive) | GI50 [3]: > 100 µM (inactive) | GI50 [37]: > 100 µM (inactive) | GI50 [4]: > 100 µM (inactive) | GI50 [38]: > 100 µM (inactive) | GI50 [39]: > 100 µM (inactive) | GI50 [40]: > 100 µM (inactive) | GI50 [41]: > 100 µM (inactive) | GI50 [6]: > 100 µM (inactive) | GI50 [7]: > 100 µM (inactive) | GI50 [42]: > 100 µM (inactive) | GI50 [43]: > 100 µM (inactive) | GI50 [9]: > 100 µM (inactive) | GI50 [44]: > 100 µM (inactive) | GI50 [10]: > 100 µM | GI50 [11]: > 100 µM (inactive) | GI50 [12]: > 100 µM (inactive) | GI50 [13]: > 100 µM (inactive) | GI50 [14]: > 100 µM (inactive) | GI50 [45]: > 100 µM (inactive) | GI50 [15]: > 100 µM (inactive) | GI50 [46]: > 100 µM (inactive) | GI50 [47]: 51.6 µM (inactive) | GI50 [48]: > 100 µM (inactive) | GI50 [17]: > 100 µM (inactive) | GI50 [18]: > 100 µM (inactive) | GI50 [19]: > 100 µM (inactive) | GI50 [49]: > 100 µM (inactive) | GI50 [50]: > 100 µM (inactive) | GI50 [20]: > 100 µM (inactive) | GI50 [21]: > 100 µM (inactive) | GI50 [22]: > 100 µM (inactive) | GI50 [23]: > 100 µM (inactive) | GI50 [24]: > 100 µM (inactive) | GI50 [51]: > 100 µM (inactive) | GI50 [52]: > 100 µM (inactive) | GI50 [25]: > 100 µM (inactive) | GI50 [26]: > 100 µM (inactive) | GI50 [53]: > 100 µM (inactive) | GI50 [54]: > 100 µM (inactive) | GI50 [28]: > 100 µM (inactive) | GI50 [55]: > 100 µM (inactive) | GI50 [56]: > 100 µM (inactive) | GI50 [29]: > 100 µM (inactive) | GI50 [30]: > 100 µM (inactive) | GI50 [57]: > 100 µM (inactive) | GI50 [32]: > 100 µM (inactive) | GI50 [58]: > 100 µM (inactive) | GI50 [33]: > 100 µM (inactive) | GI50 [34]: > 100 µM (inactive) | GI50 [59]: > 100 µM (inactive)
